Drawing on paper PMC7912796, “Design, Synthesis, Anticancer Activity, and Solid Lipid Nanoparticle Formulation of Indole- and Benzimidazole-Based Compounds as Pro-Apoptotic Agents Targeting Bcl-2 Protein” (Pharmaceuticals, 2021), this text covers DNA fragmentation for one compound.

The assay has as its system MDA-MB-231/breast cancer cell line. Put plainly: DNA fragmentation assay. The format is cell-based, human. The following applies: 13 µM, 48 h and 72 h, agarose gel ladder. Here is the method:
In order to delineate the mechanistic aspects of MDA-MB-231/breast cancer cell death mediated by 8b, the DNA fragmentation assay was conducted as being highly characteristic for apoptosis. […] A typical ladder pattern of internucleosomal fragmentation was observed from cell homogenates within both incubation periods (Figure 8). Such findings further confirm the significant activity of 8b as a potent inducer of apoptosis.
DNA isolation was performed through planting MDA-MB-231/breast cells at 0.16x10^6 density, prior to incubation at 37 °C/humidified 5% CO2 overnight. Following 48 h exposure time, cells were harvested, washed and lysed via DNA-extraction buffer at 37 °C overnight. The lysate was incubated after that with 100 μg/mL […] (Cat.#: 9097.1; Carl-Roth^TM, Karlsruhe, Germany) at 37 °C for 2 h, which was followed by three extraction processes using phenol:CHCl3 (1:1 v/v) (Bioflux^TM, Selangor, Malaysia). A consequent re-extraction was done using CHCl3 and then the organic solvent was centrifuged for 5 min at 12,000 rpm within 4 °C conditions. Extracted DNA was precipitated via ice-cold 3 M sodium acetate and absolute ethanol for 1 h at –20 °C, which was then proceeded through centrifugation (15 min—at 12,000 rpm—4 °C). […]

Regarding `CCCc1ccc(-c2nn(-c3ccccc3)cc2C=NNC(=O)c2cc3ccccc3[nH]2)cc1` [Compound 8b, N′-((1-phenyl-3-(4-propylphenyl)-1H-pyrazol-4-yl)methylene)-1H-indole-2-carbohydrazide], the DNA fragmentation entry is on record as “Significant DNA fragmentation”.
